Tested on: DOHH2 and TMD8 DLBCL cells
Assay: Gene expression profiling (HumanHT-12 v4 BeadChip, limma), ST7612AA1 300 nM 8 hrs vs DMSO
Type: cell-based, human
Conditions: 300 nM 8 hrs vs DMSO

CC(=O)SCCCCC[C@H](NC(=O)[C@H]1CCC(=O)N1)C(=O)Nc1ccccc1 [ST7612AA1]
log ratio ATP6V0C (probe ILMN_1773849): 8.22E-01 | log ratio ATP6V1G2 (probe ILMN_1654541): 8.47E-01 | log ratio ATP6V1H (ILMN_2403730): 6.35E-01 | log ratio ATP7B (probe ILMN_1722056): 8.88E-01 | log ratio AVEN (ILMN_1710216): -1.49E+00 | log ratio AVPI1 (probe ILMN_1671731): 8.94E-01 | log ratio AZI1 (probe ILMN_1746206): 7.59E-01 | log ratio BAG2 (ILMN_3244893): -9.02E-01 | log ratio BCCIP (ILMN_1771966): -9.03E-01 | log ratio BCLAF1 (ILMN_1775192): -8.85E-01 | log ratio BCLAF1 (ILMN_2357272): -8.42E-01 | log ratio BEND3 (ILMN_2375032): -9.71E-01 | log ratio BHLHB2 (ILMN_1768534): -5.96E-01 | log ratio BID (ILMN_1763386): -1.18E+00 | log ratio BID (ILMN_2372413): -8.80E-01 | log ratio BIK (probe ILMN_1770505): 7.57E-01 | log ratio BLK (ILMN_1668277): -8.77E-01 | log ratio BLVRB (probe ILMN_1797793): 8.74E-01 | log ratio BMF (ILMN_1695354): 6.49E-01 | log ratio BNIP3L (probe ILMN_1718961): 8.34E-01 | log ratio BPHL (probe ILMN_1657746): 8.91E-01 | log ratio BRIX1 (ILMN_1679800): -1.03E+00 | log ratio BRIX1 (ILMN_2155172): -1.19E+00 | log ratio BRPF3 (ILMN_1658800): -7.82E-01 | log ratio C3orf34 (probe ILMN_1665217): 6.96E-01 | log ratio C4orf32 (probe ILMN_1700257): 8.83E-01 | log ratio C7orf47 (ILMN_1741475): 6.62E-01 | log ratio C7orf55 (ILMN_3238680): -1.06E+00 | log ratio C8orf13 (ILMN_1687213): 6.60E-01 | log ratio C8orf33 (ILMN_2098325): -8.34E-01 | log ratio C9orf45 (ILMN_1719998): 6.75E-01 | log ratio C10orf32 (ILMN_2151056): -8.22E-01 | log ratio C12orf24 (ILMN_2180371): -1.09E+00 | log ratio C12orf52 (probe ILMN_1667857): 6.98E-01 | log ratio C13orf15 (probe ILMN_1658494): 7.74E-01 | log ratio C13orf25 (ILMN_1660754): -8.20E-01 | log ratio C14orf4 (ILMN_1804396): 6.53E-01 | log ratio C14orf173 (probe ILMN_2393450): 7.70E-01 | log ratio C14orf179 (probe ILMN_1756877): 7.81E-01 | log ratio C16orf57 (ILMN_1765880): 6.49E-01 | log ratio C17orf58 (ILMN_1712985): 6.08E-01 | log ratio C17orf58 (ILMN_2398926): 6.52E-01 | log ratio C18orf45 (ILMN_1690442): 6.69E-01 | log ratio C18orf55 (ILMN_1748916): -8.33E-01 | log ratio C19orf2 (ILMN_2406892): -6.10E-01 | log ratio C20orf108 (ILMN_1708016): 6.16E-01 | log ratio C20orf177 (ILMN_1718712): -9.03E-01 | log ratio CA2 (probe ILMN_2199439): 7.93E-01 | log ratio CABLES1 (ILMN_1653001): -5.93E-01 | log ratio CALM1 (ILMN_1778242): 6.20E-01 | log ratio CAMLG (probe ILMN_1714599): 7.30E-01 | log ratio CARHSP1 (ILMN_1809477): 5.98E-01 | log ratio CASC1 (ILMN_1708983): 6.58E-01 | log ratio CASC4 (probe ILMN_2325574): 6.85E-01 | log ratio CBX7 (probe ILMN_1657361): 7.49E-01 | log ratio CCDC6 (ILMN_1745904): 6.24E-01 | log ratio CCDC16 (ILMN_2154603): -8.59E-01 | log ratio CCDC24 (probe ILMN_1718771): 6.89E-01 | log ratio CCDC43 (ILMN_1743783): -5.96E-01 | log ratio CCDC58 (ILMN_1686920): -1.25E+00 | log ratio CCDC59 (ILMN_1662318): -8.48E-01 | log ratio CCDC86 (ILMN_1792681): -9.35E-01 | log ratio CCDC92 (probe ILMN_1731107): 8.05E-01 | log ratio CCDC128 (ILMN_1667356): 6.21E-01 | log ratio CCNYL1 (ILMN_1810069): 6.58E-01 | log ratio CCNYL1 (ILMN_2166524): 6.44E-01 | log ratio CCR7 (ILMN_1715131): 6.79E-01 | log ratio CD58 (ILMN_1785268): -9.16E-01 | log ratio CD58 (ILMN_2147517): -9.82E-01 | log ratio CD74 (ILMN_1736567): 6.75E-01 | log ratio CD74 (probe ILMN_1761464): 8.47E-01 | log ratio CD74 (probe ILMN_2379644): 7.27E-01 | log ratio CDC2L6 (probe ILMN_1676891): 6.96E-01 | log ratio CDC25A (ILMN_1711005): -8.24E-01 | log ratio CDC42EP5 (probe ILMN_1774982): 8.75E-01 | log ratio CDK2AP2 (probe ILMN_1690653): 8.01E-01 | log ratio CDK4 (ILMN_1689001): -8.13E-01 | log ratio CECR1 (probe ILMN_1751851): 8.43E-01 | log ratio CEP70 (ILMN_1741350): 6.16E-01 | log ratio CERK (ILMN_1767475): 6.70E-01 | log ratio CHCHD4 (ILMN_1813938): -1.36E+00 | log ratio CHD7 (ILMN_1677376): 6.71E-01 | log ratio CHRAC1 (ILMN_1722390): -6.19E-01 | log ratio CHSY1 (ILMN_1791576): 6.80E-01 | log ratio CLCC1 (probe ILMN_1671933): 8.48E-01 | log ratio CLECL1 (ILMN_1782729): -1.24E+00 | log ratio CLIC4 (probe ILMN_2063586): 7.49E-01 | log ratio CLIP2 (ILMN_2352190): 6.09E-01 | log ratio CMIP (ILMN_1738075): 6.47E-01 | log ratio CMTM8 (probe ILMN_1710124): 7.00E-01 | log ratio CNFN (ILMN_1803838): 6.20E-01 | log ratio CNIH2 (ILMN_1698733): 6.32E-01 | log ratio COCH (ILMN_1711514): -6.14E-01 | log ratio COIL (ILMN_1688034): -9.94E-01 | log ratio COTL1 (probe ILMN_1788283): 6.87E-01 | log ratio CPOX (ILMN_3240389): 6.04E-01 | log ratio CRIP1 (probe ILMN_1656920): 8.56E-01 | log ratio CRYM (probe ILMN_1779241): 8.32E-01 | log ratio CSRP1 (probe ILMN_1811921): 7.01E-01 | log ratio CSTB (probe ILMN_1761797): 8.06E-01 | log ratio CTPS (ILMN_1783285): -1.21E+00 | log ratio CTSB (probe ILMN_2359742): 8.56E-01 | log ratio CUEDC1 (ILMN_1676665): 5.93E-01 | log ratio CUL1 (ILMN_1749629): -1.05E+00 | log ratio CXADR (probe ILMN_1796925): 8.18E-01 | log ratio CXCL16 (ILMN_1728478): 6.11E-01 | log ratio CXorf26 (ILMN_1768176): -1.34E+00 | log ratio CXorf57 (probe ILMN_1703279): 8.25E-01 | log ratio CYB5R1 (probe ILMN_1729237): 7.59E-01 | log ratio CYB5R3 (probe ILMN_1740441): 7.06E-01 | log ratio CYP2R1 (probe ILMN_2119774): 7.88E-01 | log ratio DAD1 (ILMN_1731619): 6.40E-01 | log ratio DCTD (ILMN_1802456): -1.08E+00 | log ratio DCTN6 (ILMN_1744059): -8.19E-01 | log ratio DCXR (ILMN_1681437): 6.03E-01 | log ratio DDN (ILMN_1673450): -6.03E-01 | log ratio DDX21 (ILMN_1735461): -9.88E-01 | log ratio DEF8 (probe ILMN_1767509): 8.37E-01 | log ratio DGCR6L (probe ILMN_3245688): 7.47E-01 | log ratio DGKQ (ILMN_1793017): 6.08E-01 | log ratio DHRS2 (ILMN_1725726): 6.46E-01 | log ratio DIS3L (ILMN_1795822): -1.05E+00 | log ratio DKC1 (ILMN_1671257): -1.02E+00 | log ratio DNLZ (ILMN_2112049): -1.09E+00 | log ratio DNMT3B (probe ILMN_1794692): 8.14E-01 | log ratio DOK4 (ILMN_1774261): 6.37E-01 | log ratio DPF1 (ILMN_1769961): 6.38E-01 | log ratio DPH2 (ILMN_2375418): -1.21E+00 | log ratio DSTN (probe ILMN_1706426): 7.52E-01 | log ratio DTX1 (ILMN_1689002): -5.96E-01 | log ratio DUS3L (ILMN_1723235): -1.36E+00 | log ratio DYNC1H1 (probe ILMN_1780302): 6.97E-01 | log ratio DYNLL2 (probe ILMN_1772796): 8.61E-01 | log ratio DYRK1A (ILMN_2374293): -5.97E-01 | log ratio DYRK3 (probe ILMN_2400322): 6.97E-01 | log ratio DYRK3 (probe ILMN_2400326): 8.26E-01 | log ratio EARS2 (ILMN_1758750): -5.91E-01 | log ratio EBI2 (ILMN_1798706): -8.22E-01 | log ratio EBI2 (ILMN_2168217): -9.10E-01 | log ratio ECHS1 (probe ILMN_1718132): 7.78E-01 | log ratio EEF1B2 (ILMN_1685678): -8.07E-01 | log ratio EEF1E1 (ILMN_1725105): -8.38E-01 | log ratio EGR1 (probe ILMN_1762899): 8.42E-01 | log ratio ELOF1 (probe ILMN_1723185): 7.14E-01 | log ratio EMG1 (ILMN_1797074): -1.12E+00 | log ratio ENC1 (probe ILMN_1779147): 7.93E-01 | log ratio ENO2 (probe ILMN_1765796): 7.11E-01 | log ratio EPB41L5 (ILMN_1770245): 6.78E-01 | log ratio EPN1 (ILMN_1772981): 6.50E-01 | log ratio ERRFI1 (probe ILMN_1665510): 7.44E-01

From paper PMC4467398, “Preclinical antitumor activity of ST7612AA1: a new oral thiol-based histone deacetylase (HDAC) inhibitor” (Oncotarget, 2014)
